Measurements: US6673823B2, “Use of peroxisome proliferator activated receptor (PPAR)-γ ligands as a treatment for pituitary tumors and associated conditions, such as Cushing's syndrome” (Cedars-Sinai Medical Center, priority 2002, dated 2004)

How the values were obtained:
[1] = tested on: AtT20 cells; experiment: TUNEL apoptosis analysis; assay type: cell-based, mouse
Procedure: Terminal Deoxynucleotidyltransferase-mediated dUTP Nick End Labeling (TUNEL). Apoptosis-induced nuclear DNA fragmentation was detected using the in situ cell death detection kit, TMR red (Roche Diagnostics, Indianapolis, IN) following the manufacturer's protocol. Briefly, 48 hours following treatment with thiazolidinedione compounds (TZDs), AtT20 cells were fixed in 4% paraformaldehyde, permeabilized with 0.1% sodium citrate/ 0.6% Tween 20 (pH 7.4) for 2 min at 4° C. prior to incubation in Tunel reaction mix (TMR red/dNTP mix, TdT, and labeling buffer) for 60 min at 37° C. Slides were washed (3×5 min) in PBS/ Triton/ BSA (0.3%) and visualized on an Olympus BH2 immunofluorescent microscope.

[2] = tested on: normal athymic Nu/Nu mice; conditions: 150 mg/kg for 6 weeks
Text: A person first presented 2 years ago with bruising, skin striae, 70 lb weight gain and hypertension. Evaluation confirmed the diagnosis of Cushing's syndrome due to an ACTH-secreting pituitary tumor, which was resected by transsphenoidal surgery. The patient presented again one year later with weight gain, labile hypertension, diabetes and confirmed recurrence of Cushing's syndrome.

[3] = tested on: rat GH3, murine αT3, and human pituitary tumor cells; experiment: Annexin-FITC, FACS and TUNEL apoptosis analysis; assay type: cell-based; conditions: control 33±3, p<0.0002
Procedure: Apoptosis Assay: Annexin FITC by flow Cytometry. GH3, αT3 and human pituitary tumor cells were treated, washed in PBS, trypsinized, centrifuged, and washed prior to incubation with a FITC-labeled monoclonal Annexin antibody and PI for 30 min at room temperature according to manufacturer's instructions (Pharmingen, San Diego, Cailf.). About 1×10^6 cells were prepared and analyzed by flow cytometry, labeled nuclei (PI) were gated on light scatter to remove debris, and the percentage of Annexin-FITC positive cells determined. Annexin-FITC positive cells were also visualized with an Olympus BH2 immunofluorescent microscope.
Terminal Deoxynucleotidyltransferase-mediated dUTP Nick End Labeling (TUNEL). Apoptosis-induced nuclear DNA fragmentation was detected using the in situ cell death detection kit, TMR red (Roche Diagnostics, Indianapolis, Ind.) following the manufacturer's protocol. Briefly, 48 hours following TZD treatment, GH3, αT3 and human pituitary tumor cells were fixed in 4% weight per volume paraformaldehyde, permeabilized with 0.1% sodium citrate/ 0.6% Tween 20 (pH 7.4) for 2 min at 4° C. prior to incubation in Tunel reaction mix (TMR red/dNTP mix, TdT, and labeling buffer) for 60 min at 37° C. Slides were washed (3×5 min) in PBS/Triton/BSA (0.3%) and visualized on a an Olympus BH2 immunofluorescent microscope.

[4] = tested on: gonadotroph tumor cells (LβT2); experiment: Gonadotroph tumor growth in nude mice; assay type: in vivo, mouse; conditions: oral 150 mg/kg/day, 6 weeks
Text: FIG. 14A is a representative picture of a rosiglitazone-treated mouse (“Ros”) and an untreated (control) mouse 4 weeks following commencement of administration of treatment. The untreated (control) mouse in the picture developed numerous large visible tumors.
In separate parallel similarly conducted studies, gonadotroph tumor cells (LβT2) were innoculated in mice as above.

[5] = tested on: Somatolactotroph (GH3) tumor cells; experiment: Somato-lactotroph tumor growth in athymic nude mice; assay type: in vivo, mouse; conditions: oral 150 mg/kg/day, 4 weeks
[6] = tested on: Mouse gonadotroph pituitary tumor cells (αT3); experiment: Growth of established gonadotroph tumors in athymic nude mice; assay type: in vivo; conditions: oral 150 mg/kg/day for 6 weeks, started 3 weeks post-inoculation; vehicle 3.2±0.76, p=0.005
Text: As patients invariably present with already established and actively growing pituitary tumors, the effects of TZD treatment were therefore tested on growth of already established pituitary gonadotroph tumors in vivo. Mouse gonadotroph pituitary tumor cells (αT3) were inoculated subcutaneously in athymic nude mice, and tumors allowed to develop.

[7] = tested on: patient with Cushing's syndrome; experiment: 24 hour urinary free cortisol excretion in a patient with Cushing's syndrome; assay type: in vivo, human; conditions: 8 mg daily, one patient, vs. baseline, p<0.02
[8] = tested on: mouse αT3 gonadotroph cells; experiment: Cell cycle distribution (FACS, propidium iodide); assay type: cell-based
Procedure: (§1) Cell Culture. […] Medium was replenished with ligands every 2 days, and cells maintained in serum-containing medium or in serum-free medium for up to 96 hours.
(§2) Cell Cycle Distribution. Following treatments, GH3, αT3, or human pituitary tumor cells were trypsinized, centrifuged (1500 rpm×2 min), washed with PBS, and treated with 20 µg/mL Rnase A (Calbiochem, La Jolla, Cailf.). DNA was stained with 100 μg/ mL propidium iodide (PI) for 30 min at 4° C. and protected from light, prior to analysis with a FACScan (Becton Dickinson, Franklin Lakes, N.J.). DNA histogram analysis was performed using the modFitLT software.
(§3) To determine the functional significance of pituitary tumor PPAR-γ expression, the effects of PPAR-γ ligands was tested on pituitary tumor cells in vitro. Troglitazone or rosiglitazone-treatment ([…]) of GH3 (PRL- and GH-secreting), and αT3 (gonadotroph-secreting) and human pituitary tumor cells for up to 48 hours, in serum-free conditions, or up to 96 hours, for cells maintained in serum-repleted conditions, induced G0-G1 cell-cycle arrest (GH3: control, G1 75±4% vs. ros, G1 85±2%, p=0.009; αT3: control, G1 67±0.5% vs. ros, G1 75±0.5%, p=0.01), and led to decreased number of cells in S-phase (GH3: control, 18±0.05% vs. ros, 12±0.5%, p=0.001; αT3: control, 31±0.5% vs. ros, 16±2.5%, p=0.03) (FIG. 11A).

[9] = tested on: rat GH3 (PRL- and GH-secreting) cells; experiment: Cell cycle distribution (FACS, propidium iodide); assay type: cell-based
Procedure: as §1, §2, §3

[10] = tested on: Mouse corticotroph AtT20 pituitary tumor cells; experiment: Prevention of subcutaneous corticotroph tumor development in athymic nude mice; assay type: in vivo; conditions: oral 150 mg/kg/day, 4 weeks

CN(CCOc1ccc(CC2SC(=O)NC2=O)cc1)c1ccccn1 (racemic) [rosiglitazone, (±)-5-[[4-[2-(methyl-2-pyridinylamino)ethoxy]phenyl]methyl]-2,4-thiazolidinedione,(Z)-2-butenedioate]
% apoptosis (TUNEL) ([1]; 10^−5 M, control 33±3%, p<0.001): 69±7%
% apoptosis (TUNEL) ([1]; 10^−6 M, control 33±3%, p<0.001): 47±4%
increase in apoptosis (TUNEL) ([1]; 48 hours after treatment, vs. control): 2 fold
% apoptosis (TUNEL) ([1]; CRH 50 nM & ros 10^−5 M (pre-treatment before CRH), p<0.05 vs CRH): 19±3%
serum corticosterone, treated vs. untreated normal mice ([2]; unstressed and stressed (data not shown)): similar
Plasma ACTH, baseline (unstressed), Mean±SEM ([2]; controls 434±40, p=ns): 474 ± 33 pg/mL
Plasma ACTH, stress-induced (15 minutes restraint), Mean±SEM ([2]; controls 5278±312, p=ns): 4764 ± 292 pg/mL
% apoptosis ([3]; 10^−5 M): 69±7%
% apoptosis ([3]; 10^−6 M): 47±4%
tumor weight ([4]; control 3.44±0.42, P<0.002): 0.81 ± 0.19 g
plasma LH ([4]; control 69±19, p=0.004): 6.8 ± 1.0 ng/mL
tumor diameter [5]: 1-2 cm
tumor weight ([5]; control 0.13±0.01, p=0.008): 0.04 ± 0.01 g
serum GH ([5]; control 545±153, p=0.03): 114 ± 66 ng/mL
serum PRL ([5]; control 656±289, p=ns): 95 ± 58 ng/mL
final tumor weight of established tumors [6]: 0.76 ± 0.29 g
decrease of 24 hour urinary free cortisol excretion (UFC) ([7]; after 2 weeks): 33%
decrease of 24 hour urinary free cortisol excretion (UFC) ([7]; after 3 weeks): 55%
cells in S-phase ([8]; control 31±0.5%, p=0.03): 16±2.5%
cells in G1 (G0-G1 cell-cycle arrest) ([8]; control 67±0.5%, p=0.01): 75±0.5%
cells in S-phase ([9]; control 18±0.05%, p=0.001): 12±0.5%
cells in G1 (G0-G1 cell-cycle arrest) ([9]; up to 48 h serum-free or up to 96 h serum-repleted, control 75±4%, p=0.009): 85±2%
tumor diameter ([10]; control 1-2 cm): 0.1 cm
serum corticosterone, mean±SEM ([10]; vehicle 785±374, p<0.05): 113 ± 17 ng/mL
plasma ACTH, mean±SEM ([10]; vehicle 2085±847, p<0.05): 98 ± 33 pg/mL
